Data reported in patent US20160193131A1, “METHOD FOR REDUCING SURFACE FREE ENERGY AND COMPOSITION HAVING REDUCED SURFACE FREE ENERGY” (KANEKA CORPORATION, priority 2013, published 2016).

What was measured:
Format in all cases: physicochemical
[1] = Secondary structure formation by circular dichroism dispersion meter
Procedure: Similarly to the above-described Example 1, SFNa and acetone (5 mL) was added in a test tube. The mixture was stirred using a vortex mixer for 3 minutes in order to prepare 0.1 mass %, 0.5 mass % or 1 mass % SFNa solution in acetone. Then, secondary structure formation of SFNa in the prepared acetone solutions was measured using a circular dichroism dispersion meter (“J-820”, manufactured by JASCO Corporation).
Similarly to the above-described Example 5, methanol (1 mL) and SFNa were measured off in a test tube, and the mixture was stirred using a vortex mixer for 3 minutes in order to prepare 0.01 to 1 mass % SFNa solutions in methanol. Then, secondary structure formation of SFNa in the prepared […] solutions was measured using a circular dichroism dispersion meter (“J-820”, manufactured by JASCO Corporation).
Similarly to the above-described Example 5, ethanol (1 mL) and SFNa were measured off in a test tube, and the mixture was stirred using a vortex mixer for 3 minutes in order to prepare 0.05 to 1 mass % SFNa solutions in ethanol. Then, secondary structure formation of SFNa in the prepared ethanol solutions was measured using a circular dichroism dispersion meter (“J-820”, manufactured by JASCO Corporation).
Similarly to the above-described Example 5, tetrahydrofuran (1 mL) and SFNa were measured off in a test tube, and the mixture was stirred using a vortex mixer for 3 minutes in order to prepare 0.5 mass % or 1 mass % SFNa solutions in tetrahydrofuran. Then, secondary structure formation of SFNa in the prepared tetrahydrofuran solutions was measured using a circular dichroism dispersion meter (“J-820”, manufactured by JASCO Corporation).

[2] = Surface tension measurement at 25° C. (DY-500); conditions: for surface tension reducing ability: 2 mass % in 20 vol % ethanol aqueous solution
Procedure: Then, an experiment for confirmation of effect of reducing surface free energy by SFNa in organic solvent was carried out. Specifically, SFNa and diethylene glycol (10 mL) was added in a test tube so that SFNa concentration became 2 mass % similarly to the above-described Example 1. The mixture was stirred using a vortex mixer for 3 minutes. The dispersion was transferred to a petri dish and left to stand. The surface tension was measured at 25° C. using a high function surface tension measuring device (“DY-500”, manufactured by Kyowa Interface Science Co., Ltd.). In addition, the surface tensions of diethylene glycol only and 2 mass % diethylene glycol solution of sodium dodecyl sulfate, i.e. “SDS”, were similarly measured as control.
An experiment for confirmation of effect of reducing surface free energy by SFNa in a mixed solvent of water and a water-miscible solvent was also carried out. Specifically, SFNa and 20 vol % ethanol aqueous solution (10 mL) was added in a test tube so that SFNa concentration became 2 mass % similarly to the above-described Example 1. The mixture was stirred using a vortex mixer for 3 minutes. In addition, 2 mass % SDS solution was obtained as control by dissolving SDS in 20 vol % ethanol aqueous solution.
In addition, the surface tension reducing ability of SFNa and SDS in 20 vol % ethanol aqueous solution was evaluated at 25° C. similarly to the above-described Example 2.
Furthermore, surface tension was measured similarly to the above-described Example 2 except that the organic solvent was changed from diethylene glycol to dimethylsulfoxide, i.e. DMSO.
An experiment for confirmation of effect of reducing surface free energy by SFNa in a mixed solvent which contained acetone as a water-miscible solvent was also carried out, since the secondary structure formation was confirmed in the above-described Example 5. Specifically, SFNa and 20 vol % or 50 vol % acetone aqueous solution (10 mL) were added in a test tube so that SFNa concentration became 1 mass % similarly to the above-described Example 1. The mixture was stirred using a vortex mixer for 3 minutes. In addition, 1 mass % SDS solution was obtained as control by dissolving SDS in 20 vol % or 50 vol % acetone aqueous solution. The dispersion was transferred to a petri dish and left to stand similarly to the above-described Example 2. The surface tension was measured at 25° C. using a high function surface tension measuring device (“DY-500”, manufactured by Kyowa Interface Science Co., Ltd.).

[3] = Standing for one day at 25° C. and polarization microscope observation of deposits
Procedure: In addition, the above each dispersion was left to stand for one day at 25° C. […] The depositions were observed using a polarization microscope (“ECLIPSE E600”, manufactured by NIKON CORPORATION). The result is shown as FIG. 3. […] A lamellar liquid crystal may incorporate both of a hydrophilic substance and a lipophilic substance inside, since a lamellar liquid crystal has both of a hydrophilic part and a lipophilic part.

[4] = Particle size distribution by dynamic light scattering (micelle formation); conditions: DLS
Procedure: In a test tube, surfactin sodium salt (hereinafter, referred to as “SFNa”) and methanol (5 mL) or ethanol (5 mL) were added so that SFNa concentration became 2 mass %. The mixture was stirred using a vortex mixer for 3 minutes. A particle size distribution of the particles which were contained in each obtained dispersion was measured using a dynamic light scattering measuring device (product name: DLS-7000, manufactured by OTSUKA ELECTRON Co., Ltd.). In the measurement, Ar laser (λ=488 nm) was used as a light source and a scattering angle was adjusted to 90°. The result of the methanol dispersion is shown by FIG. 1 and the result of the ethanol dispersion is shown by FIG. 2.
First, an association behavior of SFNa was evaluated by a dynamic light scattering method as the above-described Example 1. As FIG. 4, a micelle having an average particle diameter of 44.8±7.7 nm was observed.

[5] = 1 mass % in 20 vol % acetone aqueous solution
[6] = 1 mass % in 50 vol % acetone aqueous solution
[7] = 2 mass % in 20 vol % ethanol aqueous solution

| Molecule | secondary structure formation (CD, negative peak near 200 nm) ([1]; 0.01 to 1 mass % in methanol) | secondary structure formation (CD, negative peak near 200 nm) ([1]; 0.05 to 1 mass % in ethanol) | secondary structure formation (CD, negative peak near 200 nm) ([1]; 0.1, 0.5 or 1 mass % in acetone) | secondary structure formation (CD, negative peak near 200 nm) ([1]; 0.5 or 1 mass % in tetrahydrofuran) | surface tension reducing effect [2, 5] | surface tension reducing effect [2, 6] | surface tension reducing ability [2] | Surface tension ([2]; 2 mass % in DMSO) | Surface tension ([2]; 2 mass % in diethylene glycol) | appearance of dispersion after standing ([3]; 2 mass % ethanol dispersion) | polarization microscope observation of deposits ([3]; 2 mass % ethanol dispersion) | appearance of dispersion after standing ([3]; 2 mass % methanol dispersion) | average particle diameter of micelle [4, 7] | average particle diameter of micelle ([4]; 2 mass % in ethanol) | average particle diameter of micelle ([4]; 2 mass % in methanol) | micelle observation [4, 7] |
| --- | --- | --- | --- | --- | --- | --- | --- | --- | --- | --- | --- | --- | --- | --- | --- | --- |
| surfactin sodium salt [SFNa] | forms secondary structure | forms secondary structure | forms secondary structure | forms secondary structure | clearly superior to SDS | the surface tension could be clearly reduced | could clearly reduce the surface tension | 39.2 mN/m | 39.6 mN/m | there were deposits | a Maltese Cross image which is characteristic of lamellar liquid crystal was observed | remained transparent | 44.8±7.7 nm | 956.8±286.5 nm | 1035.1±230.7 nm |  |
| CCCCCCCCCCCCOS(=O)(=O)[O-].[Na+] [SDS, sodium dodecyl sulfate, reference compound] |  |  |  |  | reduced the surface tension | could not reduce the surface tension | could not reduce the surface tension | 43.4 mN/m | 44.5 mN/m |  |  |  |  |  |  | a micelle cannot be observed |
